Experiment: xn = mol fraction of the nth substance listed
Conditions: 101 kPa

CCCOCCO + CCCC[n+]1ccn(C)c1.F[P-](F)(F)(F)(F)F
speed of sound [m/s]
Conditions	x1 = 0.1468	x1 = 0.1945	x1 = 0.3063	x1 = 0.3953	x1 = 0.5119	x1 = 0.6168	x1 = 0.702	x1 = 0.8043	x1 = 0.8873	x1 = 1
298.15 K	1431.8	1427.1	1414	–	1384.2	1366.5	–	1331.5	1316.4	–
303.15 K	1419	1414	–	1387.9	1369.3	1351	1334.9	–	1299.9	1283.7
308.15 K	1406.6	–	1387.1	1374.1	1354.7	1335.6	1319.1	–	1283.5	1266.4
313.15 K	1394.5	1389.3	1374.4	1360.8	1340.3	1320.3	–	1283.2	1267.2	1249.2
318.15 K	1382.8	1377.1	1361.6	1347.3	–	–	1288.1	1267.3	1250.9	1231.9
323.15 K	–	1365.3	1349.2	1334.2	1312	–	1272.7	1251.5	1234.9	1215

CCCC[n+]1ccn(C)c1.F[P-](F)(F)(F)(F)F + CCCOCCO
x2 = 0
Conditions	speed of sound [m/s]
298.15 K	1443.8
308.15 K	1419.8
323.15 K	1385.6

Reference: a compilation of properties of binary mixtures (doi:10.1016/j.molliq.2016.01.085)
